Test system: Plasmodium berghei
Assay: Luciferase/luciferin-expressing antifolate-resistant parasites were used to infect a culture of HepG2 cells that were pre-incubated with compounds. Infected hepatocytes emit light due to the luciferase reaction. Assay results are presented as the percent inhibition of light emission compared to control. […]
Type: functional
Settings: sporozoite; for IC90: read-out: LUCIFERASE INFECTION ASSAY - IC90

Structure (SMILES)	IC90 [µM]	further results
Oc1cccc(-c2cnc3cnc(-c4cc5ccccc5s4)cn23)c1	8.34	IC50 (HEPG2TOX_HILL_SLOPE 18.8, HEPG2TOX_R_SQUARED 0.771, PBLUC_HILL_SLOPE 3.35, PBLUC_R_SQUARED 0.418, read-out: LUCIFERASE INFECTION ASSAY - IC50): 4.33 µM
CC1=C2CCCC2CC/C1=N\NC(N)=O (configuration not stated)	> 15.9	IC50 (HEPG2TOX_HILL_SLOPE 20.4, HEPG2TOX_R_SQUARED 0.643, PBLUC_HILL_SLOPE 11.7, PBLUC_R_SQUARED 0.0908, read-out: LUCIFERASE INFECTION ASSAY - IC50): 14.9 µM
CC(C)Oc1ccc(Nc2nccc3[nH]c(-c4ccccc4)cc23)cc1	4.19	IC50 (HEPG2TOX_HILL_SLOPE 24.7, HEPG2TOX_R_SQUARED 0.868, PBLUC_HILL_SLOPE 10.9, PBLUC_R_SQUARED 0.493, read-out: LUCIFERASE INFECTION ASSAY - IC50): 3.42 µM
C(=C(c1nc2ccccc2s1)c1nc2ccccc2s1)c1cccnc1	9.07	IC50 (HEPG2TOX_HILL_SLOPE 18.8, HEPG2TOX_R_SQUARED 0.503, PBLUC_HILL_SLOPE 12.3, 18.3, PBLUC_R_SQUARED 0.0559, 0.217, read-out: LUCIFERASE INFECTION ASSAY - IC50): 7.82 µM
Cc1cnc(NC(=O)c2ccc3nccnc3c2)s1	> 10	IC50 (HEPG2TOX_HILL_SLOPE 19.6, HEPG2TOX_R_SQUARED 0.459, read-out: LUCIFERASE INFECTION ASSAY - IC50): > 10 µM
N#Cc1cc(-c2ccc(Cl)cc2)cnc1OC(=O)c1ccc(Cl)cc1	> 8.94	IC50 (HEPG2TOX_HILL_SLOPE 24.3, HEPG2TOX_R_SQUARED 0.913, PBLUC_HILL_SLOPE 3.24, PBLUC_R_SQUARED 0.477, read-out: LUCIFERASE INFECTION ASSAY - IC50): 6.19 µM
Cc1nn(-c2ccc(Cl)cc2)c2sc(C(=O)NCC3(N(C)C)CCCCC3)cc12	5.31	IC50 (HEPG2TOX_HILL_SLOPE 22.9, HEPG2TOX_R_SQUARED 0.594, PBLUC_HILL_SLOPE 11.3, PBLUC_R_SQUARED 0.837, read-out: LUCIFERASE INFECTION ASSAY - IC50): 4.37 µM
Cc1nn(-c2ccccc2)c(Sc2nc3ccccc3s2)c1/C=N/N1CCN(c2ccccn2)CC1	7.21	IC50 (HEPG2TOX_HILL_SLOPE 19.8, HEPG2TOX_R_SQUARED 0.361, PBLUC_HILL_SLOPE 5.19, PBLUC_R_SQUARED 0.522, read-out: LUCIFERASE INFECTION ASSAY - IC50): 4.72 µM
CC(C)C(Nc1ccc(C(F)(F)F)cc1Cl)C(=O)Nc1nc(-c2ccc(F)cc2)cs1 (configuration not stated)	5.28	IC50 (HEPG2TOX_HILL_SLOPE 19.1, HEPG2TOX_R_SQUARED 0.637, PBLUC_HILL_SLOPE 12.2, PBLUC_R_SQUARED 0.325, read-out: LUCIFERASE INFECTION ASSAY - IC50): 4.41 µM
COc1ccc(Cc2nc(Oc3ccc(C(C)=O)cc3OC)c3c4c(sc3n2)CCC4)cc1OC	> 10	IC50 (HEPG2TOX_HILL_SLOPE 23.6, HEPG2TOX_R_SQUARED 0.901, PBLUC_HILL_SLOPE 2.45, PBLUC_R_SQUARED 0.768, read-out: LUCIFERASE INFECTION ASSAY - IC50): 4.61 µM
CCC(CO)Nc1ccc2ncc(Br)n2n1 (configuration not stated)	> 11.6	IC50 (HEPG2TOX_HILL_SLOPE 18.2, HEPG2TOX_R_SQUARED 0.907, PBLUC_HILL_SLOPE 0.763, PBLUC_R_SQUARED 0.712, read-out: LUCIFERASE INFECTION ASSAY - IC50): 4.83 µM
FC(F)(F)c1cccc(-c2cc3c(Nc4ccc5c(c4)OCCO5)nccc3[nH]2)c1	5.7	IC50 (HEPG2TOX_HILL_SLOPE 20.2, HEPG2TOX_R_SQUARED 0.64, PBLUC_HILL_SLOPE 4.68, PBLUC_R_SQUARED 0.558, read-out: LUCIFERASE INFECTION ASSAY - IC50): 3.56 µM
CNC(=O)C1CN(C(=O)c2oc3ccc(OC)cc3c2C)c2ccccc2O1 (configuration not stated)	> 10	IC50 (HEPG2TOX_HILL_SLOPE 21.4, HEPG2TOX_R_SQUARED 0.941, read-out: LUCIFERASE INFECTION ASSAY - IC50): > 10 µM
Cc1nn(C(=O)Nc2cccc(C(F)(F)F)c2)c(C)c1Sc1ccc(C(F)(F)F)cn1	> 7.17	IC50 (HEPG2TOX_HILL_SLOPE 21.1, HEPG2TOX_R_SQUARED 0.715, PBLUC_HILL_SLOPE 11, PBLUC_R_SQUARED 0.14, read-out: LUCIFERASE INFECTION ASSAY - IC50): 6.09 µM
CCCCCCNC(=S)c1c(-c2ccc(F)cc2)c2c3n(c(COc4cc(C)ccc4C(C)C)nn13)CCCC2	8.92	IC50 (HEPG2TOX_HILL_SLOPE 19.8, 4.67, HEPG2TOX_R_SQUARED 0.943, 0.975, PBLUC_HILL_SLOPE 3.99, PBLUC_R_SQUARED 0.689, read-out: LUCIFERASE INFECTION ASSAY - IC50): 5.14 µM
Cc1nc(N(C)Cc2c(C)nn(C3CCS(=O)(=O)C3)c2C)c2c(-c3ccccc3)csc2n1 (configuration not stated)	> 10	IC50 (HEPG2TOX_HILL_SLOPE 23.3, HEPG2TOX_R_SQUARED 0.0131, PBLUC_HILL_SLOPE 4.31, PBLUC_R_SQUARED 0.318, read-out: LUCIFERASE INFECTION ASSAY - IC50): 6.76 µM

Structure (SMILES)	IC90 [µM]	further results
CCOC(=O)c1sc(NC(=O)Nc2ccc(Cl)c(Cl)c2)cc1C	2.36	IC50 (HEPG2TOX_HILL_SLOPE 22.1, HEPG2TOX_R_SQUARED 0.877, PBLUC_HILL_SLOPE 3.44, PBLUC_R_SQUARED 0.676, read-out: LUCIFERASE INFECTION ASSAY - IC50): 1.25 µM
Fc1cccc(NC(=S)NC2CCCCCCCCCCC2)c1	4.49	IC50 (HEPG2TOX_HILL_SLOPE 19.2, HEPG2TOX_R_SQUARED 0.924, PBLUC_HILL_SLOPE 9.11, PBLUC_R_SQUARED 0.436, read-out: LUCIFERASE INFECTION ASSAY - IC50): 3.53 µM
CCOC(=O)/C(=C\c1cccc(F)c1)C1=Nn2c(nnc2-c2ccc(OC)cc2)SC1	6.43	IC50 (HEPG2TOX_HILL_SLOPE 19.5, HEPG2TOX_R_SQUARED 0.849, PBLUC_HILL_SLOPE 122, PBLUC_R_SQUARED 0.536, read-out: LUCIFERASE INFECTION ASSAY - IC50): 6.31 µM
Clc1ccc(-c2cc(-c3csc(Nc4ccccc4Cl)n3)on2)c(Cl)c1	> 7.81	IC50 (HEPG2TOX_HILL_SLOPE 18.2, HEPG2TOX_R_SQUARED 0.802, PBLUC_HILL_SLOPE 3.06, PBLUC_R_SQUARED 0.131, read-out: LUCIFERASE INFECTION ASSAY - IC50): 7.18 µM
COc1cccc(C(=O)CC2C(=O)Nc3ccccc32)c1 (configuration not stated)	11.4	IC50 (HEPG2TOX_HILL_SLOPE 18.2, HEPG2TOX_R_SQUARED 0.892, PBLUC_HILL_SLOPE 11.5, PBLUC_R_SQUARED 0.65, read-out: LUCIFERASE INFECTION ASSAY - IC50): 9.38 µM
CCc1cccc(NS(=O)(=O)c2ccc(-n3ncc(Cl)c(Cl)c3=O)cc2)c1	9.42	IC50 (HEPG2TOX_HILL_SLOPE 22.4, HEPG2TOX_R_SQUARED 0.361, PBLUC_HILL_SLOPE 19.8, PBLUC_R_SQUARED 0.355, read-out: LUCIFERASE INFECTION ASSAY - IC50): 8.43 µM
Cc1cc(C(=O)Cn2c(CO)nc3ccccc32)c(C)n1Cc1ccco1	> 10	IC50 (HEPG2TOX_HILL_SLOPE 21, HEPG2TOX_R_SQUARED 0.739, PBLUC_HILL_SLOPE 1.98, PBLUC_R_SQUARED 0.61, read-out: LUCIFERASE INFECTION ASSAY - IC50): 3.71 µM
CCn1c2ccccc2c2cc(CN(C)C(=O)Cn3nnc4ccccc43)ccc21	2.08	IC50 (HEPG2TOX_HILL_SLOPE 27.9, HEPG2TOX_R_SQUARED 0.506, PBLUC_HILL_SLOPE 3.75, PBLUC_R_SQUARED 0.455, read-out: LUCIFERASE INFECTION ASSAY - IC50): 1.16 µM
CCN1C(=O)N(CCc2ccccc2)C2(CCN(Cc3cccc(OC)c3)CC2)C1=O	> 7.83	IC50 (HEPG2TOX_HILL_SLOPE 18.8, HEPG2TOX_R_SQUARED 0.873, read-out: LUCIFERASE INFECTION ASSAY - IC50): > 7.83 µM
COc1ccccc1C(=O)Nc1cc(-c2cn3cccnc3n2)ccc1C	> 10	IC50 (HEPG2TOX_HILL_SLOPE 18.3, HEPG2TOX_R_SQUARED 0.752, PBLUC_HILL_SLOPE 13.2, PBLUC_R_SQUARED 0.331, read-out: LUCIFERASE INFECTION ASSAY - IC50): 9.08 µM
O=C(Cn1ncc(Cl)c(Cl)c1=O)NCC(=O)Nc1ccc(F)c(F)c1F	6.18	IC50 (HEPG2TOX_HILL_SLOPE 18.2, HEPG2TOX_R_SQUARED 0.93, PBLUC_HILL_SLOPE 2.22, PBLUC_R_SQUARED 0.782, read-out: LUCIFERASE INFECTION ASSAY - IC50): 2.3 µM
CCN(CC)S(=O)(=O)c1ccc(Cl)c(NC(=O)COC(=O)c2c3c(nc4ccccc24)CCC(C)C3)c1 (configuration not stated)	4.21	IC50 (HEPG2TOX_HILL_SLOPE 20.1, HEPG2TOX_R_SQUARED 0.334, PBLUC_HILL_SLOPE 11.1, PBLUC_R_SQUARED 0.597, read-out: LUCIFERASE INFECTION ASSAY - IC50): 3.46 µM
O=C1C=CC(=O)N1c1ccc(C2CCCCC2)cc1	11.3	IC50 (HEPG2TOX_HILL_SLOPE 18, HEPG2TOX_R_SQUARED 0.917, PBLUC_HILL_SLOPE 2, PBLUC_R_SQUARED 0.694, read-out: LUCIFERASE INFECTION ASSAY - IC50): 3.78 µM
Cn1c(-c2cccc(F)c2)nc2cnc(-c3cccc(Cl)c3)cc21	> 10	IC50 (HEPG2TOX_HILL_SLOPE 19.5, HEPG2TOX_R_SQUARED 0.312, read-out: LUCIFERASE INFECTION ASSAY - IC50): > 10 µM
Nc1cccc(-c2ccnc3n[nH]c(-c4cccc(Cl)c4)c23)c1	7.12	IC50 (HEPG2TOX_HILL_SLOPE 22.1, HEPG2TOX_R_SQUARED 0.878, PBLUC_HILL_SLOPE 1.59, PBLUC_R_SQUARED 0.529, read-out: LUCIFERASE INFECTION ASSAY - IC50): 1.79 µM

Source: ChEMBL document CHEMBL4483862, “Open-source discovery of chemical leads for next-generation chemoprotective antimalarials” (2018)
